In brackets after ≈: the same amount, converted by molar mass.
Experiments:
Assay in all cases: In vitro antibacterial evaluation: minimum inhibitory concentration (MIC), broth dilution method
Format in all cases: cell-based
[1] = tested on: Staphylococcus sp.; details: for MIC Staphylococcus aureus (ATCC 29213): strain ATCC 29213; for MIC Staphylococcus aureus (GC 1131): strain GC 1131; for MIC Staphylococcus aureus (GC 3051): strain GC 3051; for MIC Staphylococcus aureus (GC 3053): strain GC 3053; for MIC Staphylococcus aureus (GC 4541): strain GC 4541; for MIC Staphylococcus aureus (GC 4542): strain GC 4542; for MIC Staphylococcus aureus-SMITH (GC 4543): strain GC 4543; for MIC Staphylococcus aureus (GC 4544): strain GC 4544; for MIC Staphylococcus aureus (GC 4545): strain GC 4545; for MIC Staphylococcus haemolyticus (GC 4546): strain GC 4546; for MIC Coagulase Negative Staphylococcus (GC 4547): strain GC 4547; for MIC Coagulase Negative Staphylococcus (GC 4548): strain GC 4548; for MIC Coagulase Negative Staphylococcus (GC 4549): strain GC 4549; for MIC Coagulase Negative Staphylococcus (GC 4551): strain GC 4551; for MIC Coagulase Negative Staphylococcus (GC 6257): strain GC 6257
In short: (§1)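 NCCLS M7-A2 broth dilution with Mueller-Hinton II, testing 64-0.06 μg/mL antibiotic against 5×10^5 CFU/mL inocula. Test strains include recent methicillin-, penicillin- or vancomycin-resistant clinical isolates. MIC is the lowest concentration preventing growth.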

[2] = tested on: Streptococcus sp.; details: 18 hours at 35° C.
In short: as §1

[3] = tested on: Escherichia coli; details: 18 hours at 35° C.
In short: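 Inoculum: 5×10^5 CFU/mL. Range: 64-0.06 μg/mL. Medium: Muller-Hinton II […]; NCCLS M7-A2 broth dilution. Endpoint: lowest concentration inhibiting growth. Strains include methicillin-, penicillin- and/or vancomycin-resistant clinical isolates.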

[4] = tested on: Enterococcus sp.; details: 18 hours at 35° C.
In short: as §1

[5] = Streptococcus agalactiae (GC 4564)
[6] = Streptococcus pneumoniae (ATCC 6301)
[7] = Streptococcus pneumoniae (GC 1894)
[8] = Streptococcus pneumoniae (GC 4565)
[9] = Streptococcus pyogenes (GC 4563)
[10] = broth dilution, inoculum 5×10^5 CFU/mL
[11] = Enterococcus faecalis (ATCC 29212)
[12] = Enterococcus faecalis (GC 2242)
[13] = Enterococcus faecalis (GC 2691)
[14] = Enterococcus faecalis (GC 3059)
[15] = Enterococcus faecalis (GC 4552)
[16] = Enterococcus faecalis (GC 4553)
[17] = Enterococcus faecalis (GC 4554)
[18] = Enterococcus faecalis (GC 6189)

CC(c1ccc(Cl)cc1)C1NC(=O)CNC(=O)C(CO)NC(=O)C(C(O)C2CNC(=N)N2C2OC(CO)C(O)C(O)C2O)NC(=O)C(C(O)C2CNC(=N)N2)NC(=O)C(Cc2ccc(OC3OC(CO)C(OC4OC5COC(C6CCCCC6)OC5C(O)C4O)C(O)C3O)cc2)NC1=O (stereo not drawn) [Example 193]
MIC Staphylococcus aureus (ATCC 29213) [1]: 0.5 µg/mL (≈ 0.351 µM) | MIC Staphylococcus aureus (GC 1131) [1]: 1 µg/mL (≈ 0.702 µM) | MIC Staphylococcus aureus (GC 3051) [1]: 1 µg/mL (≈ 0.702 µM) | MIC Staphylococcus aureus (GC 3053) [1]: 0.5 µg/mL (≈ 0.351 µM) | MIC Staphylococcus aureus (GC 4541) [1]: 0.5 µg/mL (≈ 0.351 µM) | MIC Staphylococcus aureus (GC 4542) [1]: 0.25 µg/mL (≈ 0.176 µM) | MIC Staphylococcus aureus-SMITH (GC 4543) [1]: 0.5 µg/mL (≈ 0.351 µM) | MIC Staphylococcus aureus (GC 4544) [1]: 1 µg/mL (≈ 0.702 µM) | MIC Staphylococcus aureus (GC 4545) [1]: 0.5 µg/mL (≈ 0.351 µM) | MIC Staphylococcus haemolyticus (GC 4546) [1]: 0.5 µg/mL (≈ 0.351 µM) | MIC Coagulase Negative Staphylococcus (GC 4547) [1]: 1 µg/mL (≈ 0.702 µM) | MIC Coagulase Negative Staphylococcus (GC 4548) [1]: 0.25 µg/mL (≈ 0.176 µM) | MIC Coagulase Negative Staphylococcus (GC 4549) [1]: 0.25 µg/mL (≈ 0.176 µM) | MIC Coagulase Negative Staphylococcus (GC 4551) [1]: 0.5 µg/mL (≈ 0.351 µM) | MIC Coagulase Negative Staphylococcus (GC 6257) [1]: 0.25 µg/mL (≈ 0.176 µM) | MIC Streptococcus agalactiae (GC 4564) [2, 5]: <0.06 µg/mL | MIC Streptococcus pneumoniae (ATCC 6301) [2, 6]: 0.12 µg/mL (≈ 0.0843 µM) | MIC Streptococcus pneumoniae (GC 1894) [2, 7]: <0.06 µg/mL | MIC Streptococcus pneumoniae (GC 4565) [2, 8]: <0.06 µg/mL | MIC Streptococcus pyogenes (GC 4563) [2, 9]: <0.06 µg/mL | MIC Streptococcus agalactiae (GC 4564) [2, 10]: <0.06 µg/mL | MIC Streptococcus pneumoniae (ATCC 6301) [2, 10]: 0.12 µg/mL (≈ 0.0843 µM) | MIC Streptococcus pneumoniae (GC 1894) [2, 10]: <0.06 µg/mL | MIC Streptococcus pneumoniae (GC 4565) [2, 10]: <0.06 µg/mL | MIC Streptococcus pyogenes (GC 4563) [2, 10]: <0.06 µg/mL | MIC Escherichia coli (GC 4559) [3]: 32 µg/mL (≈ 22.5 µM) | MIC Escherichia coli (GC 4560) [3]: 2 µg/mL (≈ 1.4 µM) | MIC Enterococcus avium (GC 4558) ([4]; Enterococcus avium (GC 4558)): 2 µg/mL (≈ 1.4 µM) | MIC Enterococcus faecalis (ATCC 29212) [4, 11]: 1 µg/mL (≈ 0.702 µM) | MIC Enterococcus faecalis (GC 2242) [4, 12]: 1 µg/mL (≈ 0.702 µM) | MIC Enterococcus faecalis (GC 2691) [4, 13]: 2 µg/mL (≈ 1.4 µM) | MIC Enterococcus faecalis (GC 3059) [4, 14]: 1 µg/mL (≈ 0.702 µM) | MIC Enterococcus faecalis (GC 4552) [4, 15]: 1 µg/mL (≈ 0.702 µM) | MIC Enterococcus faecalis (GC 4553) [4, 16]: 2 µg/mL (≈ 1.4 µM) | MIC Enterococcus faecalis (GC 4554) [4, 17]: 2 µg/mL (≈ 1.4 µM) | MIC Enterococcus faecalis (GC 6189) [4, 18]: 0.5 µg/mL (≈ 0.351 µM) | MIC Enterococcus faecium (GC 2243) ([4]; Enterococcus faecium (GC 2243)): 1 µg/mL (≈ 0.702 µM) | MIC Enterococcus faecium (GC 4556) ([4]; Enterococcus faecium (GC 4556)): 1 µg/mL (≈ 0.702 µM) | MIC Enterococcus faecium (GC 4557) ([4]; Enterococcus faecium (GC 4557)): 2 µg/mL (≈ 1.4 µM) | MIC Enterococcus avium (GC 4558) [4, 10]: 2 µg/mL (≈ 1.4 µM) | MIC Enterococcus faecalis (ATCC 29212) [4, 10]: 1 µg/mL (≈ 0.702 µM) | MIC Enterococcus faecalis (GC 2242) [4, 10]: 1 µg/mL (≈ 0.702 µM) | MIC Enterococcus faecalis (GC 2691) [4, 10]: 2 µg/mL (≈ 1.4 µM) | MIC Enterococcus faecalis (GC 3059) [4, 10]: 1 µg/mL (≈ 0.702 µM) | MIC Enterococcus faecalis (GC 4552) [4, 10]: 1 µg/mL (≈ 0.702 µM) | MIC Enterococcus faecalis (GC 4553) [4, 10]: 2 µg/mL (≈ 1.4 µM) | MIC Enterococcus faecalis (GC 4554) [4, 10]: 2 µg/mL (≈ 1.4 µM) | MIC Enterococcus faecalis (GC 6189) [4, 10]: 0.5 µg/mL (≈ 0.351 µM) | MIC Enterococcus faecium (GC 2243) [4, 10]: 1 µg/mL (≈ 0.702 µM) | MIC Enterococcus faecium (GC 4556) [4, 10]: 1 µg/mL (≈ 0.702 µM) | MIC Enterococcus faecium (GC 4557) [4, 10]: 2 µg/mL (≈ 1.4 µM)

CCCC(C)C1OCC2OC(OC3C(CO)OC(Oc4ccc(CC5NC(=O)C(C(C)c6ccc(Cl)cc6)NC(=O)CNC(=O)C(CO)NC(=O)C(C(O)C6CNC(=N)N6C6OC(CO)C(O)C(O)C6O)NC(=O)C(C(O)C6CNC(=N)N6)NC5=O)cc4)C(O)C3O)C(O)C(O)C2O1 (stereo not drawn) [Example 194, Cyclo[glycyl-4-chloro-β-methylphenylalanyl-O-[4-O-[4,6-O-(2-methylpentylidene)hexopyranosyl]hexopyranosyl]tyrosyl-3-(2-iminoimidazolidin-4-yl)seryl-3-(3-hexopyranosyl-2-iminoimidazolidin-4-yl)serylseryl]]
MIC Staphylococcus aureus (ATCC 29213) [1]: 0.5 µg/mL (≈ 0.354 µM) | MIC Staphylococcus aureus (GC 1131) [1]: 1 µg/mL (≈ 0.708 µM) | MIC Staphylococcus aureus (GC 3051) [1]: 1 µg/mL (≈ 0.708 µM) | MIC Staphylococcus aureus (GC 3053) [1]: 1 µg/mL (≈ 0.708 µM) | MIC Staphylococcus aureus (GC 4541) [1]: 0.5 µg/mL (≈ 0.354 µM) | MIC Staphylococcus aureus (GC 4542) [1]: 0.5 µg/mL (≈ 0.354 µM) | MIC Staphylococcus aureus-SMITH (GC 4543) [1]: 0.5 µg/mL (≈ 0.354 µM) | MIC Staphylococcus aureus (GC 4544) [1]: 2 µg/mL (≈ 1.42 µM) | MIC Staphylococcus aureus (GC 4545) [1]: 1 µg/mL (≈ 0.708 µM) | MIC Staphylococcus haemolyticus (GC 4546) [1]: 0.5 µg/mL (≈ 0.354 µM) | MIC Coagulase Negative Staphylococcus (GC 4547) [1]: 1 µg/mL (≈ 0.708 µM) | MIC Coagulase Negative Staphylococcus (GC 4548) [1]: 0.5 µg/mL (≈ 0.354 µM) | MIC Coagulase Negative Staphylococcus (GC 4549) [1]: 0.5 µg/mL (≈ 0.354 µM) | MIC Coagulase Negative Staphylococcus (GC 4551) [1]: 1 µg/mL (≈ 0.708 µM) | MIC Coagulase Negative Staphylococcus (GC 6257) [1]: 0.5 µg/mL (≈ 0.354 µM) | MIC Streptococcus agalactiae (GC 4564) [2, 5]: <0.06 µg/mL | MIC Streptococcus pneumoniae (ATCC 6301) [2, 6]: 0.25 µg/mL (≈ 0.177 µM) | MIC Streptococcus pneumoniae (GC 1894) [2, 7]: 0.12 µg/mL (≈ 0.085 µM) | MIC Streptococcus pneumoniae (GC 4565) [2, 8]: <0.06 µg/mL | MIC Streptococcus pyogenes (GC 4563) [2, 9]: <0.06 µg/mL | MIC Streptococcus agalactiae (GC 4564) [2, 10]: <0.06 µg/mL | MIC Streptococcus pneumoniae (ATCC 6301) [2, 10]: 0.25 µg/mL (≈ 0.177 µM) | MIC Streptococcus pneumoniae (GC 1894) [2, 10]: 0.12 µg/mL (≈ 0.085 µM) | MIC Streptococcus pneumoniae (GC 4565) [2, 10]: <0.06 µg/mL | MIC Streptococcus pyogenes (GC 4563) [2, 10]: <0.06 µg/mL | MIC Escherichia coli (GC 4559) [3]: 32 µg/mL (≈ 22.7 µM) | MIC Escherichia coli (GC 4560) [3]: 2 µg/mL (≈ 1.42 µM) | MIC Enterococcus avium (GC 4558) ([4]; Enterococcus avium (GC 4558)): 2 µg/mL (≈ 1.42 µM) | MIC Enterococcus faecalis (ATCC 29212) [4, 11]: 2 µg/mL (≈ 1.42 µM) | MIC Enterococcus faecalis (GC 2242) [4, 12]: 1 µg/mL (≈ 0.708 µM) | MIC Enterococcus faecalis (GC 2691) [4, 13]: 2 µg/mL (≈ 1.42 µM) | MIC Enterococcus faecalis (GC 3059) [4, 14]: 1 µg/mL (≈ 0.708 µM) | MIC Enterococcus faecalis (GC 4552) [4, 15]: 1 µg/mL (≈ 0.708 µM) | MIC Enterococcus faecalis (GC 4553) [4, 16]: 2 µg/mL (≈ 1.42 µM) | MIC Enterococcus faecalis (GC 4554) [4, 17]: 1 µg/mL (≈ 0.708 µM) | MIC Enterococcus faecalis (GC 6189) [4, 18]: 0.5 µg/mL (≈ 0.354 µM) | MIC Enterococcus faecium (GC 2243) ([4]; Enterococcus faecium (GC 2243)): 1 µg/mL (≈ 0.708 µM) | MIC Enterococcus faecium (GC 4556) ([4]; Enterococcus faecium (GC 4556)): 1 µg/mL (≈ 0.708 µM) | MIC Enterococcus faecium (GC 4557) ([4]; Enterococcus faecium (GC 4557)): 2 µg/mL (≈ 1.42 µM) | MIC Enterococcus avium (GC 4558) [4, 10]: 2 µg/mL (≈ 1.42 µM) | MIC Enterococcus faecalis (ATCC 29212) [4, 10]: 2 µg/mL (≈ 1.42 µM) | MIC Enterococcus faecalis (GC 2242) [4, 10]: 1 µg/mL (≈ 0.708 µM) | MIC Enterococcus faecalis (GC 2691) [4, 10]: 2 µg/mL (≈ 1.42 µM) | MIC Enterococcus faecalis (GC 3059) [4, 10]: 1 µg/mL (≈ 0.708 µM) | MIC Enterococcus faecalis (GC 4552) [4, 10]: 1 µg/mL (≈ 0.708 µM) | MIC Enterococcus faecalis (GC 4553) [4, 10]: 2 µg/mL (≈ 1.42 µM) | MIC Enterococcus faecalis (GC 4554) [4, 10]: 1 µg/mL (≈ 0.708 µM) | MIC Enterococcus faecalis (GC 6189) [4, 10]: 0.5 µg/mL (≈ 0.354 µM) | MIC Enterococcus faecium (GC 2243) [4, 10]: 1 µg/mL (≈ 0.708 µM) | MIC Enterococcus faecium (GC 4556) [4, 10]: 1 µg/mL (≈ 0.708 µM) | MIC Enterococcus faecium (GC 4557) [4, 10]: 2 µg/mL (≈ 1.42 µM)
